Experimental data taken from patent US20240226107A1, “UBIQUITIN-SPECIFIC PROTEASE 1 (USP1) INHIBITOR” (SIMCERE ZAIMING PHARMACEUTICAL CO., LTD., priority 2021, published 2024).
Values after ≈ are worked out from the molar mass of the structure shown.

How the values were obtained:
CYP1A2 = CYP1A2 (Homo sapiens (Human), UniProt P05177); experiment: CYP enzyme inhibition in pooled human liver microsomes (phenacetin); format: in vitro ADME
Description: (§1) Typical substrate metabolic responses of five major human CYP subtypes (CYP1A2, CYP2C9, CYP2C19, CYP2D6, CYP3A4) were evaluated using 150-donor pooled human liver microsomes (purchased from Corning, Cat. No.: 452117). The influence of different concentrations of each compound to be tested on metabolic responses of phenacetin (CYP1A2), diclofenac sodium (CYP2C9), S-mephenytoin (CYP2C19), bufuralol hydrochloride (CYP2D6), and midazolam (CYP3A4) was determined by liquid chromatography-mass spectrometry (LC/MS/MS). […] Then 200 μL of acetonitrile solution containing 3% formic acid and 40 nM internal standard verapamil was added and centrifuged at 4000 rpm for 50 min. The mixture was cooled on ice for 20 min and centrifuged at 4000 rpm for 20 min to precipitate the protein. Then 200 μL of supernatant was analyzed by LC-MS/MS. The peak area was calculated from the chromatogram. The residual activity ratio (%) was calculated according to the following equation: Peak area ratio=metabolite peak area/internal standard peak area Residual activity ratio (%)=peak area ratio of compounds-to-be-tested group/peak area ratio of blank group The half inhibitory concentration (IC50) for CYP was calculated by Excel XLfit 5.3.1.3.

CYP3A4 = CYP3A4 (Homo sapiens (Human), UniProt P08684); experiment: CYP enzyme inhibition in pooled human liver microsomes (midazolam); format: in vitro ADME
CYP3A4, sequence (P08684 whole entry): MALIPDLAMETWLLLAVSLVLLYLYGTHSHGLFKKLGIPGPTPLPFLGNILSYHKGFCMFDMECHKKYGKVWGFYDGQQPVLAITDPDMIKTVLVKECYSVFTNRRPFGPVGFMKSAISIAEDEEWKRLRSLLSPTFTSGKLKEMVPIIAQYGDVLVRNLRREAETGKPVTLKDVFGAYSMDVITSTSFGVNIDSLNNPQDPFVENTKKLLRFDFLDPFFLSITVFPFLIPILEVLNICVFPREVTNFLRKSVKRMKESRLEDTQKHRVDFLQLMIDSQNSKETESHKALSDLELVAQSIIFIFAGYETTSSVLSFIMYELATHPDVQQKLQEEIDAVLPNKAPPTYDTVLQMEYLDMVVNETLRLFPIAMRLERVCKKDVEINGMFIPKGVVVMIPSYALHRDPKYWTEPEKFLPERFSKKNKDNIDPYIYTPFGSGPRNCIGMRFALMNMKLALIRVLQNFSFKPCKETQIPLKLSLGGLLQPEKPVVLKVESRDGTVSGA
Description: as §1

[1] = Solubility (PBS pH 7.4) of compounds from DMSO solution; format: physicochemical; conditions: aqueous buffer, kinetic from dmso stock, 10 mM DMSO solution into PBS pH 7.4, 25° C., read-out: Calculated solubility
Description: The solubility (PBS pH 7.4) of a compound to be tested was determined by LC/MS/MS. 6 μL of 10 mM DMSO solution of the compound to be tested was mixed with 194 μL of DMSO to prepare 300 μM compound solution. In 490 μL of water and acetonitrile (1:1) containing an internal standard, 5 μL of the solution and 5 μL of PBS pH 7.4 solution were mixed to prepare 3 μM standard concentration solution of the sample to be tested. The dilution factor of the standard solution can be adjusted according to the strength of response signals in LC/MS.
To 485 μL of PBS pH 7.4 solution, 15 μL of 10 mM DMSO solution of the compound to be tested was added. […] After shaking, the stir bar was removed, and the sample was transferred to a filter plate and filtered using a vacuum manifold. In 490 μL of water and acetonitrile (1:1) containing an internal standard, 5 μL of filtrate and 5 μL of PBS pH 7.4 solution were mixed to prepare a solution to be tested. The dilution factor can be adjusted according to the solubility value and the strength of response signals in LC/MS.
The resulting samples were determined by LC/MS/MS. The sample solubility was calculated from peak areas of the solution of the compound to be tested and the standard concentration solution, according to the following equation:
[formula] • [Sample] is the solubility of the sample to be tested; • Area ratiosample is the ratio of the peak area of sample in the sample to be tested to the peak area of the internal standard; • INJ VOL STD is the injection volume of the standard concentration solution; • DFsample is the dilution factor of the solution of the sample to be tested; • [STD] is the concentration of the standard concentration solution; • INJ VOLsample is the injection volume of the solution of the sample to be tested; and • Area ratio STD is the ratio of the peak area of sample in the standard concentration solution to the peak area of the internal standard.

[2] = In vivo pharmacokinetics in SD rats; conditions: male, rat, plasma
Description: Using SD rats as test animals, drug concentrations in plasma of the rats at different times after intravenous injection and intragastric administration of the compounds provided in the present application were determined by LC/MS/MS. In vivo pharmacokinetic behaviors of the compounds provided in the present application in rats were investigated to evaluate pharmacokinetic characteristics of the compounds.
There were three healthy 6-8-week-old male SD rats in each group.
Intravenous administration: A certain amount of drug was weighed, and then 10 vol % N,N-dimethylacetamide, 33 vol % triethylene glycol, and 57 vol % physiological saline were added to prepare 1 mg/mL colorless clear and transparent liquid;
Intragastric administration: A certain amount of drug was weighed, and then 0.5 wt % hydroxypropyl methylcellulose, 0.1 vol % tween 80, and 99.6 vol % physiological saline were added to prepare 1 mg/mL white suspension.
After fasting overnight, the SD rats were dosed intravenously or intragastrically.
The compounds provided in the present application were administered intravenously to the rats, then 0.2 mL of blood was collected from jugular veins respectively at 0.083, 0.25, 0.5, 1, 2, 4, 8, and 24 h after the administration, and placed in a test tube containing EDTA-K2. The test tube was then centrifuged at 4000 rpm at 4° C. for 5 min to separate plasma, and the plasma was stored at −75° C. Alternatively, the compounds provided in the present application were administered intragastrically to the rats, then 0.2 mL of blood was collected from jugular veins respectively at 0.25, 0.5, 1, 2, 4, 8, and 24 h after the administration, and placed in a test tube containing EDTA-K2. The test tube was then centrifuged at 3500 rpm at 4° C. for 10 min to separate plasma, and the plasma was stored at −75° C.
The content of the compounds to be tested in rat plasma after intravenous administration or intragastric administration at different concentrations was determined: 30 μL of rat plasma at each time after administration was taken, 200 μL (50 ng/mL) of solution of internal standard dexamethasone in acetonitrile was added, then the resulting mixture was vortex-mixed for 30 s, and centrifuged at 4700 rpm at 4° C. for 15 min, the supernatant of plasma samples was diluted three times with water, and 2.0 μL of diluted solution was taken for LC-MS/MS.
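For GI50 in this document: MDA-MB-436 proliferation over 7 days with compound, viability read as ATP luminescence (CellTiter-Glo), inhibition relative to DMSO-only wells, day 0 signal as background, GI50 from four-parameter fit.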

CYP1A2, sequence (P05177 whole entry): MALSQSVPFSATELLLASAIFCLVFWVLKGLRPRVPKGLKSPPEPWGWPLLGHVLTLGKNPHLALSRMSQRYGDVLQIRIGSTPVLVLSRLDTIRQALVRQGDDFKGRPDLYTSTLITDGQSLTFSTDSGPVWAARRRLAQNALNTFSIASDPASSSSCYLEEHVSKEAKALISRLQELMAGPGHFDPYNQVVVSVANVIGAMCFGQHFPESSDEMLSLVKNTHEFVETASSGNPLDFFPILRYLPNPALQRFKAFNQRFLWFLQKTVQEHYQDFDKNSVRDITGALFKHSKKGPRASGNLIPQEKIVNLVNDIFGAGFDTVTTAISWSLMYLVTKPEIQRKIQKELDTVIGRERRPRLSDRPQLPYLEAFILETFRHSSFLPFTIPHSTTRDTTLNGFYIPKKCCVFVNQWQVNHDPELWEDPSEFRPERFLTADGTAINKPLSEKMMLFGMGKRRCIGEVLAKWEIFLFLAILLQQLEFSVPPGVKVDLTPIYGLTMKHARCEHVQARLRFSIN
Description for MDA-MB-436 cells: Assay based on CellTiter-Glo luminescent cell viability assay system.
The assay kit (CellTiter-Glo® Luminescent Cell Viability Assay) was purchased from Promega, with Cat. No. of G7573, and was stored at −30° C. after subpackage. The kit is a homogeneous assay method for assaying the number of viable cells in a culture based on quantitative determination of ATP. The kit produces a luminescence signal proportional to the amount of ATP present, and the amount of ATP is directly proportional to the number of cells in the culture.
The cultured cells were trypsinized, collected and centrifuged, then resuspended at an adjusted concentration in a culture solution (DMEM+10% FBS), and cultured overnight on a 384-well plate (400 cells/20 μl/well) in a cell incubator with 5% CO2 at 37° C. An ECHO instrument was used to added the compound and pure DMSO onto each well of the 384-well plate. The total volume of the compound and DMSO is 100 nL, and the instrument obtains gradient diluted sample concentrations through different ratios. To each well, 30 μL of culture solution was added, and after mixing by centrifugal oscillation and re-centrifugation, the cells were cultured in a cell incubator for 7 days (one column of cells was subjected to CTG assay on the day of dosing). After day 7, 25 μL of CTG assay solution was added to each well, and after mixing by centrifugal oscillation and re-centrifugation, the cells were placed at room temperature away from light for 10 min. In terms of chemiluminescence signals, an Envision plate reader (PerkinElmer, emission wavelength: 400-700 nm) was used to measure a signal in each well. The chemiluminescence value [RLU]cpd on day 7 was obtained for the treatment group, the chemiluminescence value [RLU]cell on day 7 was obtained for the non-treatment group (given DMSO only), and the chemiluminescence value [RLU]background on day 0 was obtained for the parallel non-treatment group (given DMSO only) by CTG assay on day 0. […] In the following equation, x represents the concentration of the compound in a logarithmic form; and F(x) represents an effect value (inhibition rate of proliferation at the concentration): F(x)=(A+((B−A)/(1+((C/x)^D)))). A, B, C, and D are four parameters.

Compound: COc1ncnc(C2CC2)c1-c1ncc2c(n1)N(Cc1ccc(-c3nc(C(F)(F)F)cn3C)cc1)CC(=O)N2C [Compound 11, 2-(4-cyclopropyl-6-methoxypyrimidin-5-yl)-5-methyl-8-(4-(1-methyl-4-(trifluoromethyl)-1H-imidazol-2-yl)benzyl)-7,8-dihydropteridin-6(5H)-one]
- IC50 (CYP1A2): > 30 µM
- IC50 (CYP3A4): > 30 µM
- solubility at 2 h [1]: 214 µM (≈ 118 µg/mL)
- Vd ([2]; IV 1 mg/kg, read-out: Apparent volume of distribution Vss_obs): 3.2 L/kg
- clearance ([2]; IV 1 mg/kg, read-out: Clearance CL_obs): 16.5 mL/min/kg
- half-life ([2]; IV 1 mg/kg, read-out: Half-life period T1/2 (converted)): 3.2 h
- bioavailability ([2]; PO 5 mg/kg versus IV, read-out: Bioavailability F): 96.3%
- Cmax ([2]; PO 5 mg/kg, read-out: Maximum plasma concentration Cmax): 1010 ng/mL
- GI50 (MDA-MB-436 cells): 0.0328 µM
